Measured values reported in patent publication US20050260253A1, “Transmucosal gel formulations” (Recordati Ireland Limited, priority 2004, published 2005).
Where two headings read alike, the source gives them in different places.

What was measured:
[1] = system: genital blood flow in female anesthetized rabbits; assay: Genital tissue oxyhemoglobin (genital engorgement) by laser oximetry, basal and after pelvic nerve stimulation, in vivo model of female sexual arousal; design: species or system rabbit (New Zealand White); settings: for nerve-induced increase in genital tissue OxyHb: topical vaginal formulation; for mean AUC of genital tissue OxyHb compared to vehicle-treated control group: 15-35 min; for response to pelvic nerve stimulation (genital tissue oxyhemoglobin) vs control stimulations: vaginal submucosal injection 100 μg
Protocol: The effect of Rec 15/2615 formulation on genital blood flow, a physiologic parameters of female sexual arousal, was measured in both the basal, non-aroused state and following stimulation of the pelvic nerve, which mimics the sexually aroused state, in an established in vivo animal model of female sexual arousal (see, e.g., Munarriz, R., et al., 2003, A review of the physiology and pharmacology of peripheral (vaginal and clitoral) female genital arousal in the animal model, J. Urol. 170(2 Pt 2):S40-44; Min, K., et al., 2000, Sildenafil augments pelvic nerve-mediated female genital sexual arousal in the anesthetized rabbit. Intl. J. Impot. Res. 12(Suppl)3:S32-39; Tarcan, T., et al., 2000, Systemic administration of apomorphine improves the hemodynamic mechanism of clitoral and vaginal engorgement in the rabbit. Int J Impot Res. 12:235-240; Park, K., et al., 1997, Vasculogenic female sexual dysfunction: the hemodynamic basis for vaginal engorgement insufficiency and clitoral erectile insufficiency. Intl. J. Impot. Res. 9:27-37). Each of the foregoing references is incorporated herein by reference in its entirety.
(§1) Female New Zealand White rabbits (4.5 to 5 kg) were anesthetized by intramuscular injection of ketamine (35 mg/kg) and xylazine (5 mg/kg) and secured in the supine position. Anesthesia was maintained as needed with additional intramuscular xylazine (5 mg/ml). A midline neck incision (3 cm) was fashioned to access the carotid artery. A 20-gauge angiocatheter was inserted into the carotid artery for systemic blood pressure measurements. […] Body temperature was maintained with an electric heat pad. Following subcutaneous lidocaine injection, the perivesical space was exposed through a mid-line abdominal incision. The pelvic nerve was identified and carefully dissected under the perivesical fat on the postero-lateral aspect of the upper vagina. Bladder contents were aspirated through the bladder wall with an 18 gauge needle and 50 ml syringe. Under direct vision, a bipolar platinum wire electrode was hooked onto the pelvic nerve without cutting the nerve. Unilateral pelvic nerve stimulation was accomplished with a Grass SD9 stimulator set at normal polarity and repeat mode to generate a 30 second train of square waves with 10 V pulse amplitude, 0.8 msec pulse duration and 2-6 Hz frequency. A laser Doppler flowmetry surface probe (model BLF21D, Transonic System Inc, Ithaca, N.Y., USA) was placed into the rabbit vagina and used to confirm unilateral pelvic nerve stimulation. The interval between stimulations was 10-15 min to prevent nerve exhaustion.
Tissue hemoglobin concentration was determined by a near infrared optical spectroscopy technique using a dual channel laser oximeter (model 96208; ISS, Inc., Champaign, Ill.). This technique utilizes a continuous wave optical spectrometer with a fiber optic array probe consisting of one detector and 8 light sources. The sources emit light in the near infrared spectrum (700-900 nm) which can penetrate a targeted volume of tissue (˜530 mm^3) to an average depth of 7.2 mm beneath the optical fibers. By detecting scattered light, absorption by oxyhemoglobin (OHb) and deoxyhemoglobin can be quantified and total hemoglobin can be calculated. Laser oximetry can thus be utilized to assess local tissue hemodynamics in a non-invasive and continuous fashion. The skin around the labia was carefully shaved to ensure good contact with the optical fibers. The probe (2 cm in length) was positioned longitudinally on the skin overlying the clitoris, labia and vagina, such that the detector fiber was positioned just below the pubic arch. The probe assembly was secured in place by a metal stand. The area over the probe was covered with a black cloth to prevent any interference from natural or artificial ambient light sources.
A flexible 18 gauge catheter was attached to a syringe loaded with hydrogel formulation. The catheter was filled until the formulation reached 3-5 mm from the open end. […]

[2] = Plasma concentration of Rec 15/2615 by LC/MS-MS after vaginal application or submucosal injection; assay type: in vivo, rabbit; settings: for concentration at 15 min: female, rabbit, plasma, read-out: Mean plasma levels of Rec 15/2615
Protocol: A flexible 18 gauge catheter was attached to a syringe loaded with hydrogel formulation. The catheter was filled until the formulation reached 3-5 mm from the open end. The catheter was placed 2.5 cm into the vagina and secured to the labia with suture to prevent migration. The syringe was placed on the heating pad to keep the formulation warm. Following control nerve stimulations, 1 ml of formulation was infused into the vagina. Pelvic nerve stimulation was repeated 15 min and 30 min afterwards. Nerve stimulation at the 15 min time point coincided with the time of maximal serum concentration.
Rec 15/2615 hydrochloride (1 mg/ml) was dissolved in 10% (v/v) N,N-dimethylformamide. Prior to the application of the laser oximeter probe, Rec 15/2615 hydrochloride solution was loaded into two 23 gauge infusion sets connected to 1 ml syringes (50 μl per infusion set). Needles were inserted into the distal vaginal wall, just below the mucosal surface, at the 3 and 9 o'clock positions. Following control nerve stimulations, drug was infused into the vagina. Pelvic nerve stimulation was repeated 15 min and 30 min after drug administration.
Blood samples (˜2 ml) were obtained from the carotid artery prior to formulation administration and then […] after formulation administration. Samples were collected in heparinized syringes and transferred into pre-cooled polypropylene tubes on ice. Plasma was obtained by centrifugation at 1200×g for 2 min at 4° C. and stored at −20° C.
0.1 mL of rabbit plasma was transferred to an Eppendorf tube and 10 μL of internal standard methanolic solution (0.2 μg/mL of 4-amino-6,7-dimethoxy-2-[4-(2-isopropyl-5-methylphenoxy acetyl)-1-piperazinyl]quinazoline (Rec 15/2693) in methanol) were added. 1 mL of acetonitrile was added to each sample and samples were shaken on a multimixer shaker for 1 min. Protein was allowed to precipitate and samples were then centrifuged at 4° C. for 10 min at 2700 g. The organic layer was transferred to a new glass tube and evaporated at 45° C. under a stream of nitrogen. The residue was dissolved in 250 μL of buffer solution containing methanol/10 mM ammonium formate, pH 3.5 (40:60; v/v). Samples were mixed 1 min using a vortex mixer and clarified by centrifugation (5 min×2700 g). The clarified solution was transferred into an autosampler vial. Aliquots of 20 μL were analyzed by LC/MS-MS.

[3] = system: systemic blood pressure; assay: Systemic blood pressure via carotid artery catheter in anesthetized rabbits; assay type: in vivo, rabbit (New Zealand White)
Protocol: as §1, with “The interval between stimulations was 10-15 min to prevent nerve exhaustion.” left out

SMILES: COc1cc2nc(N3CCN(C(=O)COc4c(OC)cccc4C(C)C)CC3)nc(N)c2cc1OC.Cl.Cl [Rec 15/2615 hydrochloride]
- effect on genital tissue oxyhemoglobin administered as a gel compared with direct submucosal injection ([1]; formulations 0.075% and 0.15% vs submucosal injection, considering plasma levels at 15 min): higher than that obtained by direct injection

SMILES: COc1cc2nc(N3CCN(C(=O)COc4c(OC)cccc4C(C)C)CC3)nc(N)c2cc1OC [Rec 15/2615, 4-amino-6,7-dimethoxy-2-{4-[(2-isopropyl-6-methoxyphenoxy)acetyl]-1-piperazinyl}quinazoline]
- nerve-induced increase in genital tissue OxyHb ([1]; pelvic nerve stimulation at 15 min): significant increase
- nerve-induced increase in genital tissue OxyHb ([1]; pelvic nerve stimulation at 30 min): remained high
- AUC of genital tissue OxyHb relative to vehicle ([1]; topical vaginal, 0-35 min, dose-dependent trend): higher AUC values relative to vehicle
- mean AUC of genital tissue OxyHb compared to vehicle-treated control group ([1]; topical vaginal, 1 ml formulation 0.15%): statistically significant difference
- mean AUC of genital tissue OxyHb compared to vehicle-treated control group ([1]; topical vaginal, 1 ml formulation 0.3%): statistically significant difference
- mean area-under-the-curve (AUC) of genital tissue OxyHb compared to vehicle ([1]; topical vaginal, 1 ml formulation, 0-15 min, all concentrations except 0.15%): similar
- duration of sustained genital engorgement following formulation administration ([1]; topical vaginal, duration of the experimental protocol): up to 45 minutes
- response to pelvic nerve stimulation (genital tissue oxyhemoglobin) vs control stimulations ([1]; 15 min after injection): significantly enhanced response
- response to pelvic nerve stimulation (genital tissue oxyhemoglobin) vs control stimulations ([1]; 30 min after injection): did not reach statistical significance
- concentration at 15 min ([2]; other: submucosal injection into the distal vaginal wall, 15 min after direct submucosal injection of 0.1 mg): 26.3 ng/mL
- concentration at 15 min ([2]; other: vaginal application, 15 min after vaginal application of 1 ml of formulation 0.075%): 10.6 ng/mL
- concentration at 15 min ([2]; other: vaginal application, 15 min after vaginal application of 1 ml of formulation 0.15%): 45.2 ng/mL
- concentration at 15 min ([2]; other: vaginal application, 15 min after vaginal application of 1 ml of formulation 0.3%): 72.5 ng/mL
- plasma levels with increasing concentration of active compound in the formulation ([2]; vaginal application, 0.075-0.3%): dose-dependent increase
- effect on blood pressure ([3]; topical vaginal administration, 0.075-0.3% formulations): no significant effect
- effect on systemic blood pressure ([3]; vaginal submucosal injection (data not shown)): did not affect systemic blood pressure
